Source: US20220402869A1, “TRANSCRIPTIONAL ENHANCED ASSOCIATE DOMAIN (TEAD) TRANSCRIPTION FACTOR INHIBITORS AND USES THEREOF” (Dana-Farber Cancer Institute, Inc., priority 2018, published 2022)

Tested on: TEAD transcriptional activity
Assay: Inhibition of TEAD-driven transcription (8×GTIIC-luciferase reporter assay)
Format: cell-based
Settings: 40 μM at 24 hour treatment
Method: The compounds were tested for their ability to inhibit TEAD-driven transcription.
8×GTIIC-luciferase plasmid, containing 8 TEAD binding sites (ACATTCCA), was obtained from Addgene (Addgene #34615). MDA-MB-231 cells were transfected with 8×GTIIC-luciferase and stable clone was obtained using neomycin selection. The TEAD transcriptional activity was monitored by assessing the luciferase activity using luciferase assay system (Promega). Each data point represents mean±standard deviation.

Row | SMILES | inhibition at 40 µM [%]
1 | C=CC(=O)N1CCC[C@@H](Nc2cccc(C(F)(F)F)c2)C1 [Compound I-1, (R)-1-(3-((3-(trifluoromethyl)phenyl)amino)piperidin-1-yl)prop-2-en-1-one] | 50
2 | O=C(CCl)N1CCC[C@@H](Nc2cccc(C(F)(F)F)c2)C1 [Compound I-2, (R)-2-chloro-1-(3-((3-(trifluoromethyl)phenyl)amino)piperidin-1-yl)ethan-1-one] | 50
3 | O=C(CCl)N1CCC(Nc2cccc(C(F)(F)F)c2)C1 (stereo not shown) [Compound I-10, 2-chloro-1-(3-((3-(trifluoromethyl)phenyl)amino)pyrrolidin-1-yl)ethan-1-one] | 90
4 | C=CC(=O)N1CCC(Nc2cccc(C(F)(F)F)c2)C1 (stereo not shown) [Compound I-11, 1-(3-((3-(trifluoromethyl)phenyl)amino)pyrrolidin-1-yl)prop-2-en-1-one] | 90
5 | O=C(CCl)N1CCC[C@H](Nc2cccc(C(F)(F)F)c2)C1 [Compound I-14, (S)-2-chloro-1-(3-((3-(trifluoromethyl)phenyl)amino)piperidin-1-yl)ethan-1-one] | 70
6 | C=CC(=O)N1CCC[C@H](Nc2cccc(C(F)(F)F)c2)C1 [Compound I-15, (S)-1-(3-((3-(trifluoromethyl)phenyl)amino)piperidin-1-yl)prop-2-en-1-one] | 70
7 | C#Cc1cc(N[C@@H]2CCCN(C(=O)CCl)C2)cc(C(F)(F)F)c1 [Compound I-18] | 50
8 | O=C(CCl)N1CCCC(Nc2cccc(C(F)(F)F)c2)C1 (stereo not shown) [Compound I-19, 2-chloro-1-(3-((3-(trifluoromethyl)phenyl)amino)piperidin-1-yl)ethan-1-one] | 50
9 | O=C(CCl)N1CCC[C@@H](Oc2cccc(C(F)(F)F)c2)C1 [Compound I-20, (R)-2-chloro-1-(3-(3-(trifluoromethyl)phenoxy)piperidin-1-yl)ethan-1-one] | 70
10 | C=CC(=O)N1CCC[C@@H](Oc2cccc(C(F)(F)F)c2)C1 [Compound I-21] | 70
11 | CCC(=O)N1CCC(Nc2cccc(C(F)(F)F)c2)C1 (stereo not shown) [Compound I-27, 1-(3-((3-(trifluoromethyl)phenyl)amino)pyrrolidin-1-yl)propan-1-one] | 70
12 | O=C(CCl)Nc1ccccc1Nc1cccc(C(F)(F)F)c1 [Compound I-31, 2-chloro-N-(2-((3-(trifluoromethyl)phenyl)amino)phenyl)acetamide] | 90
13 | O=C(CCl)N1CC(c2cccc(C(F)(F)F)c2)c2ccccc21 (stereo not shown) [Compound I-35, 2-chloro-1-(3-(3-(trifluoromethyl)phenyl)indolin-1-yl)ethan-1-one] | 70
14 | CN(C)C/C=C/C(=O)N1CC[C@H](Nc2cccc(C(F)(F)F)c2)C1 [Compound I-47, (S,E)-4-(dimethylamino)-1-(3-((3-(trifluoromethyl)phenyl)amino)pyrrolidin-1-yl)but-2-en-1-one] | 50
15 | C=CC(=O)N1CC[C@H](N(C)c2cccc(C(F)(F)F)c2)C1 [Compound I-48, (S)-1-(3-(methyl(3-(trifluoromethyl)phenyl)amino)pyrrolidin-1-yl)prop-2-en-1-one] | 50
16 | C=CC(=O)N1CC[C@H](Nc2cccc(N3CCN(C)CC3)c2)C1 [Compound I-49, (S)-1-(3-((3-(4-methylpiperazin-1-yl)phenyl)amino)pyrrolidin-1-yl)prop-2-en-1-one] | 50
17 | C=CC(=O)N1CC[C@H](Nc2cc(C(F)(F)F)cc(C(F)(F)F)c2)C1 [Compound I-50, (S)-1-(3-((3,5-bis(trifluoromethyl)phenyl)amino)pyrrolidin-1-yl)prop-2-en-1-one] | 90
18 | C=CC(=O)N1CC[C@H](Nc2cc(C(F)(F)F)ccc2Cl)C1 [Compound I-51, (S)-1-(3-((2-chloro-5-(trifluoromethyl)phenyl)amino)pyrrolidin-1-yl)prop-2-en-1-one] | 90
19 | C=CC(=O)N1CC[C@H](Nc2cc(Cl)cc(C(F)(F)F)c2)C1 [Compound I-52, (S)-1-(3-((3-chloro-5-(trifluoromethyl)phenyl)amino)pyrrolidin-1-yl)prop-2-en-1-one] | 70
20 | C=CC(=O)N1CC[C@H](Nc2cc(C(F)(F)F)ccc2OC)C1 [Compound I-56, (S)-1-(3-((2-methoxy-5-(trifluoromethyl)phenyl)amino)pyrrolidin-1-yl)prop-2-en-1-one] | 50
21 | C=CC(=O)N1CC[C@H](Nc2cccc(C(F)(F)F)c2C)C1 [Compound I-57, (S)-1-(3-((2-methyl-3-(trifluoromethyl)phenyl)amino)pyrrolidin-1-yl)prop-2-en-1-one] | 70
22 | C=CC(=O)N1CC[C@H](Oc2cccc(C(F)(F)F)c2)C1 [Compound I-58, (S)-1-(3-(3-(trifluoromethyl)phenoxy)pyrrolidin-1-yl)prop-2-en-1-one] | 70
23 | C=CC(=O)N1CC[C@H](Nc2cncc(C(F)(F)F)c2)C1 [Compound I-61, (S)-1-(3-((5-(trifluoromethyl)pyridin-3-yl)amino)pyrrolidin-1-yl)prop-2-en-1-one] | 50
24 | C=CC(=O)N1C[C@@H](O)[C@H](Nc2cccc(C(F)(F)F)c2)C1 [Compound I-62, 1-((3R,4R)-3-hydroxy-4-((3-(trifluoromethyl)phenyl)amino)pyrrolidin-1-yl)prop-2-en-1-one] | 70
25 | C=CC(=O)N1CC[C@H](Nc2cccc(C(F)(F)F)c2N)C1 [Compound I-65, (S)-1-(3-((2-amino-3-(trifluoromethyl)phenyl)amino)pyrrolidin-1-yl)prop-2-en-1-one] | 90
